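Grown in 96-well plates, cells were treated for 48 hours with each compound at five concentrations. Insufficient inhibition: endpoint recorded as highest concentration tested. GI50 is the concentration that inhibits growth by half. TGI marks complete inhibition of growth.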

This passage reports GI50 and TGI results from PubChem BioAssay (NCI).

Among the test systems are A498 renal; RPMI-8226 leukemia; NCI-H460 lung; MDA-MB-435; OVCAR-8 ovarian; HOP-62 NSCLC; HCT-15 colon; SNB-19 CNS; NCI-H23 lung; DU-145 prostate.
Assay in all cases: NCI tumour cell line growth inhibition, 48 h

Take `CC(C)[C@@]12C[C@@H](OC(=O)COC(=O)/C=C/c3ccccc3)[C@@](C)(O1)[C@@H]1CC[C@@H](C)[C@H]1[C@@H]2OC(=O)/C=C/c1ccccc1`: the GI50 with A498 renal was < 0.0441 µM; in the assay on RPMI-8226 leukemia, > 89.4 µM; in the assay on NCI-H460 lung, > 100 µM; in the assay with MDA-MB-435 it was > 100 µM; in the assay on OVCAR-8 ovarian it was 0.173 µM; in the assay on HOP-62 NSCLC, > 100 µM. Further, the GI50 with HCT-15 colon, in the assay on SNB-19 CNS, in the assay with NCI-H23 lung and with DU-145 prostate was > 100 µM throughout. For the same compound, the TGI in the assay with A498 renal is 0.401 µM; with RPMI-8226 leukemia, > 100 µM; in the assay with NCI-H460 lung, > 100 µM; in the assay on MDA-MB-435 it was > 100 µM; in the assay with OVCAR-8 ovarian it was > 100 µM; with HOP-62 NSCLC, > 100 µM. In addition, the TGI in the assay with HCT-15 colon, in the assay on SNB-19 CNS, in the assay on NCI-H23 lung and in the assay with DU-145 prostate was > 100 µM throughout.

As to `O=C(CCCCCCSc1nc(-c2ccccc2)cc(-c2ccccc2)n1)NO`, the GI50 in the assay on A498 renal is 1.69 µM; in the assay with RPMI-8226 leukemia, 0.405 µM; with NCI-H460 lung, 1.4 µM; in the assay on MDA-MB-435, 1.98 µM; with OVCAR-8 ovarian, 1.79 µM; with HOP-62 NSCLC it was 1.93 µM. Also, the GI50 in the assay on HCT-15 colon was 2.29 µM; with SNB-19 CNS, 2.69 µM; in the assay on NCI-H23 lung it was 1.97 µM; in the assay on DU-145 prostate it was 2.44 µM. Also, the TGI turned out to be 4.05 µM in the assay with A498 renal; 3.1 µM in the assay with RPMI-8226 leukemia; 11.7 µM in the assay with NCI-H460 lung; 11.2 µM in the assay with MDA-MB-435; 16.9 µM in the assay with OVCAR-8 ovarian; 8.06 µM in the assay with HOP-62 NSCLC. Moreover, the TGI with HCT-15 colon is 10.6 µM; with SNB-19 CNS it was 11.3 µM; in the assay with NCI-H23 lung, 5.55 µM; in the assay on DU-145 prostate, 10.6 µM.

As to `CN1CCN(c2nc(NCCCCNc3ccnc4cc(Cl)ccc34)c3ccccc3n2)CC1`, the GI50 with A498 renal was 12.1 µM; in the assay on RPMI-8226 leukemia, 1.8 µM; with NCI-H460 lung, 5.14 µM; in the assay on MDA-MB-435 it was 1.97 µM; with OVCAR-8 ovarian, 4.25 µM; in the assay with HOP-62 NSCLC it was 5.15 µM. For the same compound, the GI50 was 2.9 µM in the assay on HCT-15 colon, 4.28 µM in the assay with SNB-19 CNS, 11.7 µM in the assay on NCI-H23 lung and 7 µM in the assay on DU-145 prostate. In addition, the TGI turned out to be 25 µM in the assay on A498 renal; 5.43 µM with RPMI-8226 leukemia; 18.3 µM in the assay with NCI-H460 lung; 4.25 µM with MDA-MB-435; 20.1 µM with OVCAR-8 ovarian; 20.2 µM with HOP-62 NSCLC. Further, the TGI in the assay on HCT-15 colon stood at 14 µM; in the assay with SNB-19 CNS, 20.8 µM; with NCI-H23 lung, 29.7 µM; in the assay on DU-145 prostate, 21.7 µM.

Take `COc1cc(Cn2c(=S)ss/c2=N\C(=S)N(C)C)cc(OC)c1OC`: the TGI was > 100 µM with A498 renal; > 85.8 µM in the assay on RPMI-8226 leukemia; 52.3 µM in the assay on NCI-H460 lung; 15.8 µM in the assay on MDA-MB-435; > 70.9 µM in the assay with OVCAR-8 ovarian; > 84.1 µM in the assay with HOP-62 NSCLC. For the same compound, the TGI was > 70.5 µM with HCT-15 colon, > 100 µM with SNB-19 CNS, 50.6 µM with NCI-H23 lung and > 39.5 µM with DU-145 prostate.

For `COc1ccc(C(=O)/C=C/c2c(C(F)(F)F)nc3sccn23)cc1OC`, the GI50 with A498 renal was 7.58 µM; with RPMI-8226 leukemia, 1.62 µM; with NCI-H460 lung, 1.94 µM; in the assay on MDA-MB-435 it was 1.85 µM; with OVCAR-8 ovarian, 2.4 µM; with HOP-62 NSCLC it was 6 µM. For the same compound, the GI50 was 2.54 µM with HCT-15 colon, 4.25 µM in the assay with SNB-19 CNS, 2.78 µM in the assay with NCI-H23 lung and 1.64 µM in the assay on DU-145 prostate. Also, the TGI in the assay on A498 renal was 54.9 µM; in the assay with RPMI-8226 leukemia, > 100 µM; in the assay on NCI-H460 lung, 6.65 µM; with MDA-MB-435 it was > 100 µM; in the assay on OVCAR-8 ovarian, > 100 µM; in the assay with HOP-62 NSCLC, 43 µM. Also, the TGI with HCT-15 colon was > 100 µM; with SNB-19 CNS, > 100 µM; in the assay with NCI-H23 lung, 27.9 µM; in the assay on DU-145 prostate, 5 µM.

For the compound `CN(CC(=O)O)c1ccc(/C=C/c2ccnc3ccccc23)cc1`, the TGI in the assay on A498 renal was 47.1 µM; in the assay with RPMI-8226 leukemia it was 57.5 µM; in the assay with NCI-H460 lung, 67.1 µM; in the assay with MDA-MB-435, 51.1 µM; with OVCAR-8 ovarian, > 100 µM; in the assay on HOP-62 NSCLC, > 100 µM. Further, the TGI in the assay on HCT-15 colon, in the assay on SNB-19 CNS, in the assay with NCI-H23 lung and in the assay on DU-145 prostate was > 100 µM throughout.

As to `COc1ccc(-c2cnnn2-c2cc(OC)c3c(c2)OCO3)cc1`, the GI50 is 0.0444 µM in the assay with A498 renal; 0.256 µM in the assay on RPMI-8226 leukemia; 0.0728 µM in the assay on NCI-H460 lung; 0.0202 µM with MDA-MB-435; 0.304 µM in the assay with OVCAR-8 ovarian; 0.113 µM in the assay on HOP-62 NSCLC. Moreover, the results for the GI50 in the assay on HCT-15 colon, in the assay with NCI-H23 lung and in the assay on DU-145 prostate were 0.0481 µM, 0.286 µM and 0.291 µM, respectively. In addition, the TGI was 0.633 µM in the assay on A498 renal; > 100 µM in the assay on RPMI-8226 leukemia; > 29.2 µM in the assay on NCI-H460 lung; 0.0512 µM in the assay on MDA-MB-435; > 100 µM in the assay with OVCAR-8 ovarian; > 100 µM in the assay with HOP-62 NSCLC. For the same compound, the TGI in the assay with HCT-15 colon, in the assay on SNB-19 CNS and with NCI-H23 lung was > 100 µM in each case.

Turning to `C=CC1=C[C@@H]2[C@@H]3O[C@]4(CC[C@H](O4)[C@@H](C)C[C@@H](O)C3=O)C[C@H](O)C3=NCC[C@@]32CC1`, the GI50 with A498 renal, with RPMI-8226 leukemia, in the assay with NCI-H460 lung, in the assay with MDA-MB-435, with OVCAR-8 ovarian and in the assay on HOP-62 NSCLC was < 0.00333 µM in each case. The GI50 with HCT-15 colon, in the assay on SNB-19 CNS, with NCI-H23 lung and in the assay with DU-145 prostate was < 0.00333 µM throughout. In addition, the TGI in the assay on A498 renal was < 0.00333 µM; in the assay with RPMI-8226 leukemia, < 0.00333 µM; in the assay on NCI-H460 lung it was < 0.00333 µM; in the assay with MDA-MB-435, 0.00334 µM; with OVCAR-8 ovarian, 0.044 µM; in the assay with HOP-62 NSCLC, 0.0075 µM. In addition, the TGI is < 0.00333 µM in the assay with HCT-15 colon, < 0.00333 µM in the assay with SNB-19 CNS, < 0.00333 µM in the assay on NCI-H23 lung and 0.00335 µM in the assay on DU-145 prostate.
